Paper PMC7570852, “Ruthenium(II)/(III) DMSO-Based Complexes of 2-Aminophenyl Benzimidazole with In Vitro and In Vivo Anticancer Activity” (Molecules, 2020)
Marks after values point to notes of the source that are not given here.

Legend:
[1] = test system: Ehrlich ascites carcinoma (EAC); experiment: Serum liver and kidney function tests, EAC-bearing mice; assay type: in vivo; settings: mean ± SEM
Method: (§1) The mice were divided into the following eight groups (10 mice in each group): • Control group: Mice were intraperitoneally injected with a vehicle (2% DMSO + sterile saline) for 12 days. • I, II, and III control groups: Healthy normal mice were intraperitoneally injected with 6, 12, and 18 mg/kg of complex (2), respectively, for 12 days. • EAC group: Mice were intraperitoneally injected by a single dose of 2.5 × 10^6 viable Ehrlich ascites carcinoma (EAC) cells in PBS. In brief, EAC cells were withdrawn from the EAC mouse’s intraperitoneal cavity, washed, and centrifuged three times with sterile saline. Then, the pellets were suspended in sterile PBS and counted by the trypan blue exclusion assay, which confirmed that the viability of the cells was 98%. • I, II, and III treated groups: Firstly, 30 healthy mice were intraperitoneally injected with a single dose of 2.5 × 10^6 viable EAC cells. After one day; the mice were divided into I, II, and III treated groups (10 mice each group), intraperitoneally injected with 6, 12, and 18 mg/kg Ru(III) complex, respectively, for 12 days.
(§2) The animals were monitored for EAC growth by measuring abdominal size. At the end of the experiment all animals were fasted overnight then sacrificed. Serum samples were collected to study the biological parameters such as liver and kidney function as well as antioxidant enzyme activity. Liver samples from each group were frozen immediately in liquid nitrogen for molecular analysis.
Liver function tests. Serum GPT and GOT activities were measured by the method of Murray with a standard kit. The enzyme activities were estimated by measuring the decrease in absorbance of NADH at 340 nm. Bilirubin concentration was estimated by the colorimetric method of Kaplan et al.. Albumin concentration was measured colorimetrically by the color change of bromocresol from yellow-green to green-blue.
Kidney function tests. Creatinine was estimated colorimetrically by reacting with alkaline picrate forming a red complex. Urea was hydrolyzed enzymatically into ammonia which reacts with several compounds to form a green complex that can be measured colorimetrically. Uric acid was estimated by the enzymatic method of Schultz.

[2] = test system: human breast cancer (MCF7) cells; experiment: MTT cell viability assay, MCF7; assay type: cell-based; settings: 24 h
Method: The cytotoxic effect of the Hapbim ligand and its complexes (1) and (2) on human breast cancer (MCF7), human colorectal cancer (Caco2), and human normal liver (THLE-2) cell lines was evaluated by the MTT assay. The cells were cultured in a 96-well plate (1 × 10^4 cells/well, 100 μL/well) containing DMEM medium provided with 10% fetal bovine serum, and 1% penicillin/streptomycin. Then, the cells were incubated at 37 °C for 24 h in a CO2 incubator under 5% CO2, 95% air until reaching a confluence of 70–80%. A 20 μL volume of each compound at different concentrations (from 5 to 400 μM for the cancer cell and from 600 to 1000 μM for the normal cells) was added and the cells were re-incubated for a further 24 h. After the incubation period, the cells were incubated again with 5 mg/mL of MTT for 4 h and then the medium was replaced with 100 μL DMSO and vortexed for 20 min. Finally, the absorbance was recorded at 570 nm using the microplate reader. […] To calculate the cell inhibition percentage, the following equation was used:% Cell inhibition = 100 − % cell viability ((At − Ab)/(Ac − Ab)) × 100%)(4) where At is the absorbance value of tested compound; Ab is the absorbance value of blank; Ac is the absorbance value of the control.

[3] = test system: Ehrlich ascites carcinoma (EAC); experiment: EAC mouse model: abdominal size and peritoneal angiogenesis; assay type: in vivo, mice; settings: for mean abdominal circumference: EAC mice
Method: as §1, §2

SOD, GSH, CAT, TAC = experiment: Oxidative stress markers in serum of EAC-bearing mice; assay type: in vivo
Method: as §1, §2
The SOD activity in serum samples was evaluated as described by Dechatelet et al.. GSH was assayed in serum samples by detection of a yellow colored product following a reaction with 5,5’-dithiobis(2-nitrobenzoic acid) (DTNB). The catalase activity was estimated according to Aebi. Total antioxidant capacity (TAC) was determined by the method of Koracevic et al..

MCF7 cells = experiment: Cell-cycle analysis by flow cytometry (PI), MCF7; assay type: cell-based, human; settings: MCF7, 117.6 μg/mL, 24 h
Method: The Ru(III) complex (2) (117.6 μg/mL) was added to MCF7 and Caco2 cells at a confluence of 70–80% and incubated for 24 h (in a CO2 incubator). The cells were then digested with warm trypsin-EDTA + warm PBS-EDTA (0.25%) (500 + 500 μL) with incubation for 10 min at 37 °C. The mixture was centrifuged (450 rpm) for 5 min, then the supernatant was removed. The mixture was washed twice in warm PBS and the cell pellet was re-suspended in 500 µl warm PBS, centrifuged and the supernatant decanted. A volume of 150 μL PBS + 350 μL ice-cold 70% ethanol was added and incubated at 4 °C for 1 h to fix the cells. To remove ethanol, the mixture was centrifuged at 350 rpm for 10 min and then the supernatant was removed. The mixture was washed twice in warm PBS and the cells were re-suspended in 500 μL of warm PBS, centrifuged, and the supernatant was removed. The cells were resuspended in 100 μL PBS and stored at 4 °C for up to four days. In darkness, the cells were stained with 100 µL of propidium iodide (PI) solution + 50 µL RNase A solution (100 µg/mL) and incubated in darkness for 30–60 min. The stained cells were read in an Attune flow cytometer (Applied Bio-system, Foster City, CA, USA).

[4] = II treated 12 mg/kg i.p. 12 days
[5] = III treated 18 mg/kg i.p. 12 days
[6] = three treated groups vs untreated EAC group

CS(C)=O.Nc1ccccc1-c1nc2ccccc2[nH]1.O.[Cl][Ru]([Cl])[Cl] [(2), [Ru(III)Cl3(DMSO)(Hapbim)]·H2O]
Albumin ([1]; I treated 6 mg/kg i.p. 12 days): 0.9 ± 0.03 g/dL
Bilirubin ([1]; I treated 6 mg/kg i.p. 12 days): 0.18 ± 0.03 mg/dL
Creatinine ([1]; I treated 6 mg/kg i.p. 12 days): 0.7 ± 0.01 mg/dL
GOT ([1]; I treated 6 mg/kg i.p. 12 days): 248 ± 15.6 ^a U/L
GPT ([1]; I treated 6 mg/kg i.p. 12 days): 15.2 ± 0.7 U/L
Urea ([1]; I treated 6 mg/kg i.p. 12 days): 34.5 ± 0.4 mg/dL
Uric Acid ([1]; I treated 6 mg/kg i.p. 12 days): 2.6 ± 0.1 mg/dL
Albumin [1, 4]: 2.7 ± 0.3 g/dL
Bilirubin [1, 4]: 0.2 ± 0.03 mg/dL
Creatinine [1, 4]: 0.7 ± 0.1 mg/dL
GOT [1, 4]: 179 ± 10.8 U/L
GPT [1, 4]: 17.8 ± 0.6 U/L
Urea [1, 4]: 34.2 ± 0.6 mg/dL
Uric Acid [1, 4]: 2.7 ± 0.1 mg/dL
Albumin [1, 5]: 2.6 ± 0.1 g/dL
Bilirubin [1, 5]: 0.18 ± 0.02 mg/dL
Creatinine [1, 5]: 1 ± 0.1 ^a mg/dL
GOT [1, 5]: 145 ± 39.3 U/L
GPT [1, 5]: 31.9 ± 7.8 U/L
Urea [1, 5]: 33.3 ± 1.2 mg/dL
Uric Acid [1, 5]: 2.8 ± 0.1 mg/dL
IC50 MCF-7 [2]: 118 ± 8 µg/mL
IC50 ([2]; read-out: IC50 MCF-7): 230 ± 10 µM
peritoneal angiogenesis ([3]; EAC mice, 6, 12, 18 mg/kg treated groups vs EAC group): decreased in a dose-dependent manner
mean abdominal circumference ([3]; I (6 mg/kg) i.p. for 12 days, untreated EAC 13.20 ± 0.03, control 7.06 ± 0.18): 9.6 ± 0.2 cm
mean abdominal circumference ([3]; II (12 mg/kg) i.p. for 12 days): 7.30 ± 0.03 cm
mean abdominal circumference ([3]; III (18 mg/kg) i.p. for 12 days): 7.10 ± 0.03 cm
SOD levels (SOD, GSH, CAT, TAC; I (6 mg/kg), II (12 mg/kg), III (18 mg/kg) treated groups vs untreated EAC group): elevated
CAT levels (SOD, GSH, CAT, TAC; [6]): increased
GSH levels (SOD, GSH, CAT, TAC; [6]): increased
total antioxidant capacity (TAC) (SOD, GSH, CAT, TAC; three treated groups vs untreated EAC group, p < 0.0001): significantly increased
cells in G0/G1 phase (MCF7 cells): 24%
cells in G2/M phase (MCF7 cells): 55%
cells in S phase (MCF7 cells): 21%
